According to patent US7642364B2, “Benzopyrone compounds, preparation method and use thereof” (Shenyang Research Institute of Chemical Industry, priority 2003, dated 2010):

Assays:
cucumber grey mold = assay: Fungicidal activity on potted plants, cucumber grey mold; type: in vivo; conditions: 200 ppm
[1] = test system: tomato early stage blight; assay: Fungicidal activity on potted plants, tomato early stage blight; type: in vivo; conditions: 200 ppm
culex mosquitoes = assay: Insecticidal/acaricidal activity, culex mosquitoes; type: in vivo; conditions: 10 ppm
cucumber downy mildew = assay: Fungicidal activity on potted plants, cucumber downy mildew; type: in vivo; conditions: for control(%) fungicidal activity against cucumber downy mildew: 50 ppm; for control against cucumber downy mildew: 200 ppm, spray on potted plant
wheat powdery mildew = assay: Fungicidal activity on potted plants, wheat powdery mildew; type: in vivo; conditions: 200 ppm
wheat leaf blotch = assay: Fungicidal activity on potted plants, wheat leaf blotch; type: in vivo; conditions: 200 ppm
grape downy mildew = assay: Fungicidal activity on potted plants, grape downy mildew; type: in vivo; conditions: 200 ppm
wheat leaf rust = assay: Fungicidal activity on potted plants, wheat leaf rust; type: in vivo; conditions: 200 ppm
tomato late blight = type: in vivo; conditions: 200 ppm
Mexican lady beetle = assay: Insecticidal/acaricidal activity, Mexican lady beetle; type: in vivo; conditions: 300 ppm
Experimental: Numerous insect larvae were put into containers then were fed with treated corn leaves. Potter's spraying tower was used as the sprayer and spraying volume was 1 mL. The spraying pressure was 13.5 lb/in^2.

two-spotted spider mite = assay: Insecticidal/acaricidal activity, two-spotted spider mite; type: in vivo; conditions: 300 ppm
[2] = Biological evaluation of compound JP51 after synthesis; conditions: after synthesis and the biological evaluation
Text: Biological active data of the compound in JP04-182461 have not been disclosed.

Row | Compound | control(%) fungicidal activity against cucumber downy mildew (cucumber downy mildew) | control against cucumber downy mildew (cucumber downy mildew) | further results
1 | CON=C(C(=O)OC)c1ccccc1COc1ccc2c(C)c(Cl)c(=O)oc2c1 [Compound 100] | – | – | control against cucumber grey mold (cucumber grey mold): 100%
2 | COC=C(C(=O)OC)c1ccccc1COc1ccc2c(C)cc(=O)oc2c1C(C)=O [Compound 11] | – | – | control against tomato early stage blight [1]: > 75%
3 | COC=C(C(=O)OC)c1ccccc1COc1ccc2c(C)c(C)c(=O)oc2c1 [Compound 5] | 100% | 100% | control of culex mosquitoes (culex mosquitoes): 100%
4 | CCCc1c(C)c2ccc(OCc3ccccc3C(=NOC)C(=O)OC)cc2oc1=O [Compound 412] | – | – | control against wheat powdery mildew (wheat powdery mildew): 100%
5 | CCCc1c(CCC)c2ccc(OCc3ccccc3C(=COC)C(=O)OC)cc2oc1=O [Compound 409] | 100% | 100% | –
6 | COC=C(C(=O)OC)c1ccccc1COc1ccc2c(C)c(C)c(=O)oc2c1C [Compound 6] | 100% | 100% | control against wheat leaf blotch (wheat leaf blotch): > 90%; control against grape downy mildew (grape downy mildew): 100%; control of culex mosquitoes (culex mosquitoes): 100%; control against cucumber grey mold (cucumber grey mold): 100%; control against wheat leaf rust (wheat leaf rust): 100%; control against tomato late blight (tomato late blight): > 95%
7 | CCCCCCc1c(C)c2ccc(OCc3ccccc3C(=NOC)C(=O)OC)cc2oc1=O [Compound 414] | – | 100% | –
8 | CCCc1cc(=O)oc2c(C)c(OCc3ccccc3C(=COC)C(=O)OC)ccc12 [Compound 35] | – | 100% | –
9 | CCc1cc(=O)oc2cc(OCc3ccccc3C(=COC)C(=O)OC)ccc12 [Compound 33] | – | 100% | –
10 | COC=C(C(=O)OC)c1ccccc1COc1cc2oc(=O)cc(C)c2cc1C(C)=NOC [Compound 9] | – | – | control of Mexican lady beetle (Mexican lady beetle): 100%
11 | CCCc1c(Cl)c(=O)oc2cc(OCc3ccccc3C(=NOC)C(=O)OC)ccc12 [Compound 410] | – | 100% | –
12 | CON=C(C(=O)OC)c1ccccc1COc1ccc2c(C)c(Cl)c(=O)oc2c1C [Compound 109] | – | 100% | –
13 | COC=C(C(=O)OC)c1ccccc1COc1ccc2c(-c3ccccc3)cc(=O)oc2c1C [Compound 4] | – | 100% | –
14 | CCCCc1c(C)c2ccc(OCc3ccccc3C(=NOC)C(=O)OC)cc2oc1=O [Compound 413] | – | 100% | control against wheat powdery mildew (wheat powdery mildew): 100%
15 | CCCc1c(C)c(=O)oc2cc(OCc3ccccc3C(=COC)C(=O)OC)ccc12 [Compound 37] | 100% | 100% | –
16 | COC=C(C(=O)OC)c1ccccc1COc1ccc2c(C)c(Cc3ccccc3)c(=O)oc2c1C [Compound 69] | – | 100% | –
17 | CCCCc1c(C)c2ccc(OCc3ccccc3C(=COC)C(=O)OC)cc2oc1=O [Compound 402] | 100% | 100% | control against cucumber grey mold (cucumber grey mold): 100%; control against wheat powdery mildew (wheat powdery mildew): 100%

Row | Compound | control(%) fungicidal activity against cucumber downy mildew (cucumber downy mildew) | control against cucumber downy mildew (cucumber downy mildew) | further results
18 | CCc1c(C)c2ccc(OCc3ccccc3C(=COC)C(=O)OC)cc2oc1=O [Compound 18] | – | 100% | control against cucumber grey mold (cucumber grey mold): 100%
19 | COC=C(C(=O)OC)c1ccccc1COc1ccc2c(C)c(Cl)c(=O)oc2c1 [Compound 12] | 100% | 100% | –
20 | CCCc1cc(=O)oc2cc(OCc3ccccc3C(=COC)C(=O)OC)ccc12 [Compound 34] | – | 100% | –
21 | COC=C(C(=O)OC)c1ccccc1COc1ccc2c(C(C)C)cc(=O)oc2c1 [Compound 26] | 100% | 100% | –
22 | COC=C(C(=O)OC)c1ccccc1COc1ccc2ccc(=O)oc2c1 [Compound 1] | 100% | 100% | –
23 | COC=C(C(=O)OC)c1ccccc1COc1ccc2c(C)c(F)c(=O)oc2c1 [Compound 50] | – | 100% | control against cucumber grey mold (cucumber grey mold): 100%
24 | COC=C(C(=O)OC)c1ccccc1COc1ccc2c(-c3ccccc3)cc(=O)oc2c1 [Compound 52] | 100% | 100% | –
25 | CCCCCCc1c(C)c2ccc(OCc3ccccc3C(=COC)C(=O)OC)cc2oc1=O [Compound 405] | 100% | 100% | –
26 | COC=C(C(=O)OC)c1ccccc1COc1ccc2c(C)c(Cl)c(=O)oc2c1C [Compound 25] | – | 100% | –
27 | COC=C(C(=O)OC)c1ccccc1COc1ccc2c(-c3ccc(OC)c(OC)c3)cc(=O)oc2c1 [Compound 58] | – | 100% | control against cucumber grey mold (cucumber grey mold): 100%
28 | COC=C(C(=O)OC)c1ccccc1COc1ccc2c(COC)cc(=O)oc2c1 [Compound 19] | – | 100% | –
29 | CON=C(C(=O)OC)c1ccccc1COc1cc2oc(=O)cc(-c3cccc(C(F)(F)F)c3)c2cc1C(C)=O [Compound 141] | 100% | – | –
30 | COC=C(C(=O)OC)c1ccccc1COc1ccc2c(C(F)(F)F)cc(=O)oc2c1 [Compound 7] | – | – | control against grape downy mildew (grape downy mildew): 100%; control of two-spotted spider mite (two-spotted spider mite): > 50%; control of Mexican lady beetle (Mexican lady beetle): 100%
31 | COC=C(C(=O)OC)c1ccccc1COc1cc2oc(=O)cc(C)c2cc1C(C)=O [Compound 10] | – | – | control against grape downy mildew (grape downy mildew): 100%; control against tomato late blight (tomato late blight): > 75%; control of Mexican lady beetle (Mexican lady beetle): 100%
32 | COC=C(C(=O)OC)c1ccccc1COc1ccc2c(C)cc(=O)oc2c1 [Compound 2] | 100% | 100% | control of culex mosquitoes (culex mosquitoes): 100%; control against cucumber grey mold (cucumber grey mold): 100%
33 | CNC(=O)/C(=N/OC)c1ccccc1COc1ccc2ccc(=O)oc2c1 [JP51, reference compound] | 20% | – | biological activity (general statement) [2]: low biological active
